Key:
neurons = assay: Neurotoxicity of civamide (applicant's discovery, no method given)
male Sprague-Dawley rats [1] = assay: Pain models after a single intrathecal dose: thermal escape, formalin and thermal injury evoked hyperalgesia, tactile allodynia in the Chung model of neuropathy; assay type: in vivo, rat; conditions: single intrathecal dose of 10, 25 or 50 Φg/10 Φl saline with 20% or 25% DMSO
Experimental: Civamide 10 Φg/10 Φl saline, 25Φg/10 Φl saline, and 50 Φg/10 Φl saline and saline itself were administered intrathecally to male Sprague-Dawley rats. Each of the civamide compositions also included either 20% DMSO or 25% DMSO as a suspending agent. The saline used was 0.9% USP. Eighteen hours, 7 days, 14 days and 28 days after administration of a single intrathecal dose of either civamide or saline, models for various types of pain were evaluated. These included models for acute nociceptive processing (i.e. thermal escape), post tissue injury hyperpathic states (i.e. formalin and thermal injury evoked hyperalgesia) and nerve injury induced hyperpathia (i.e. tactile allodynia in the Chung model of neuropathy).

[2] = compositions containing civamide, per U.S. Pat. No. 5,063,060; cited from earlier work
[3] = assay type: physicochemical
From the text: Civamide in amounts of 1 Φg, 5 Φg, 10 Φg, 50 Φg, and 100 Φg was dispersed in both 10 Φl and 20 Φl of each of the following: 100% dimethylsulfoxide (DMSO), normal saline (0.9% w/v sodium chloride) with 10% DMSO as suspending agent, normal saline with 0.5% DMSO and 10% cyclodextrin, 10% cyclodextrin and 10% DMSO as suspending agent, and normal saline with 10% cyclodextrin suspending agent, and normal saline with 25% DMSO. In each case, the saline was 0.9% USP.

male Sprague-Dawley rats [4] = assay: Tail flick, hot plate (49° C., 52° C.) and paw pressure pain models after intrathecal administration; assay type: in vivo, rat; conditions: 1-100 Φg in 10 or 20 Φl, evaluated seven days later, paw pressure
Experimental: Civamide and capsaicin were each separately administered intrathecally, in dosages of 1 Φg, 5 Φg, 10 Φg, 50 Φg, or 100 Φg in either 10 Φl or 20 Φl of 0.9% USP saline with 25% DMSO suspending agent, 0.9% USP saline and 10% cyclodextrin, and 0.9% USP saline with 0.5% DMSO and 10% cyclodextrin, to male Sprague-Dawley rats into whom intrathecal catheters had been inserted. Seven days later, tail flick, hot plate (49° C., 52° C.) and paw pressure pain models were evaluated.

COc1cc(CNC(=O)CCCC/C=C\C(C)C)ccc1O [Civamide, cis-8-methyl-N-vanillyl-6-nonenamide]
neurotoxicity (neurons): no significant neurotoxicity | duration of the effects of a single dose (male Sprague-Dawley rats [1]): at least 28 days | time after administration by which effective pain amelioration was produced (male Sprague-Dawley rats [1]): ≤ 18 h | efficacy compared with compositions containing capsaicin [2]: comparable in efficacy | local adverse effects compared with capsaicin [2]: significantly less local adverse effects | physical and chemical stability of compositions [3]: physically and chemically stable | effectiveness versus intrathecally administered capsaicin in pain models (male Sprague-Dawley rats [4]): more effective than intrathecally administered capsaicin | effectiveness versus saline in pain models (male Sprague-Dawley rats [4]): significantly more effective than saline
